From US6872517B2, “Early diagnosis of cancerous and precancerous conditions by leakage of signature peptides and carbohydrates into the bloodstream” (Lankenau Institute for Medical Research, priority 2000, dated 2005)

Tests used:
occludin = details: cited from earlier work
LLC-PK1 = details: cited from earlier work
[1] = tested on: renal epithelial cell line; details: cited from earlier work
DMH-treated colon = test: Barrier function of DMH-treated colon (Rt, 14C-D-mannitol flux, aberrant crypts); assay type: in vivo, rat
Description: In addition, however, weekly changes in barrier function of DMH-treated colon were examined, with an emphasis on assessing that function by means of electrophysiology (Rt) and transepithelial flux of ^14C-D-mannitol.

rat colon epithelium = test: Increased luminal EGF in rat colon; assay type: in vivo
Description: The biological significance here is that luminal fluids of many epithelial tissues contain very high levels of certain growth factors (Barnard et al., 1995; Jorgenson et al., 1990; Nexo et al., 1992; Mroczkowski and Reich, 1993), whereas the receptors for these growth factors are normally found on the abluminal cell surface. (Bishop and Wen, 1994; Muto et al., 1991; Thompson, 1988; Scheving et al., 1989). […] (Mullin, 1997). […] This is a direct consequence of the carcinogen's effect on colonic crypt epithelial TJs as described below.

[2] = as weeks of DMH exposure progressed

Compound: CCCCCCCCCCCCCC(=O)O[C@@H]1[C@@H](C)[C@@]2(O)[C@@H](C=C(CO)C[C@]3(O)C(=O)C(C)=C[C@@H]23)[C@@H]2C(C)(C)[C@]12OC(C)=O [TPA]
- ZO-1 expression (occludin; immunofluorescence): down regulated
- localization of occludin (occludin; immunofluorescence): very little change
- threonine phosphorylation state of occludin (occludin; in association with increased TJ permeability): decrease
- transepithelial electrical resistance (Rt) (LLC-PK1; LLC-PK1 cell line): rapid, dose dependent decrease
- penetration of tight junctions by ruthenium red (LLC-PK1; TPA-treated cell sheets, not control cultures): able to penetrate
- size of molecules the TJs became leaky to (LLC-PK1; TPA-treated cell sheets): ≤ 2 million
- crossing of paracellular markers D-mannitol (mw 182) and polyethylene glycol (mw 4000) (LLC-PK1; TPA-treated epithelial cell sheet vs control cell sheet): much more rapidly
- morphology after chronic exposure (LLC-PK1; chronic exposure, 4 days or greater): polyp-like, multilayered foci
- transepithelial leakiness to salts [1]: capable of causing transepithelial leakiness to salts

Compound: CNNC [DMH, dimethylhydrazine]
- transepithelial electrical resistance (Rt) (DMH-treated colon; [2]): irregular but significant decline
- transepithelial flux of 14C-D-mannitol (DMH-treated colon; [2]): rise
- number of aberrant colon crypts (DMH-treated colon; with increasing weeks of DMH exposure): increased in number

Compound: EGF: Epidermal Growth Factor, a growth factor (NSDSECPLSHDGYCLHDGVCMYIEALDKYACNCVVGYIGERCQYRDLKWWELR; Epidermal growth factor; UniProt P01133 971-1023, looked up)
- carcinomas in carcinogen-treated rat colon (rat colon epithelium; colon treated with dimethylhydrazine, luminal EGF increased): greater number and size of carcinomas
- effect on normal rat colon epithelium (rat colon epithelium; increased EGF concentration in colonic lumen): does not produce any observed effect
